Laboratory results from patent US11780851B2, “LRRK2 inhibitors” (H. Lundbeck A/S, priority 2021, dated 2023).

Assays:
LRRK2 WT = target: T1, LRRK2 WT (Homo sapiens, UniProt Q5S007); assay: LRRK2 wild-type kinase activity assay (LanthaScreen TR-FRET); format: biochemical; conditions: 1 nM LRRK2 WT, 1.3 mM ATP, 3.5 h at 30° C.; n≥2 tests
T1 construct: comprises residue 970 to 2527 of the full length human wild-type LRRK2 kinase; purchased Invitrogen (Life Technologies Corporation)
How it was run: (§1)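 TR-FRET measured phosphorylation of fluorescein-ERM LRRKtide by human LRRK2 residues 970–2527, wild-type or G2019S, detected with a terbium anti-phospho-LRRKtide antibody. The 520/495 nm ratio was normalized to uninhibited and inhibitor controls. IC50 came from a Hill fit, log-averaged over independent experiments.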

LRRK2 G2019S = target: T2, LRRK2 G2019S (Homo sapiens, UniProt Q5S007, G2019S); assay: LRRK2 G2019S kinase activity assay (LanthaScreen TR-FRET); format: biochemical; conditions: 250 pM LRRK2 G2019S, 1.3 mM ATP, 3 h at 30° C.; n≥2 tests
T2 construct: purchased Invitrogen (Life Technologies Corporation)
T2 sequence (Q5S007 970-2527 G2019S): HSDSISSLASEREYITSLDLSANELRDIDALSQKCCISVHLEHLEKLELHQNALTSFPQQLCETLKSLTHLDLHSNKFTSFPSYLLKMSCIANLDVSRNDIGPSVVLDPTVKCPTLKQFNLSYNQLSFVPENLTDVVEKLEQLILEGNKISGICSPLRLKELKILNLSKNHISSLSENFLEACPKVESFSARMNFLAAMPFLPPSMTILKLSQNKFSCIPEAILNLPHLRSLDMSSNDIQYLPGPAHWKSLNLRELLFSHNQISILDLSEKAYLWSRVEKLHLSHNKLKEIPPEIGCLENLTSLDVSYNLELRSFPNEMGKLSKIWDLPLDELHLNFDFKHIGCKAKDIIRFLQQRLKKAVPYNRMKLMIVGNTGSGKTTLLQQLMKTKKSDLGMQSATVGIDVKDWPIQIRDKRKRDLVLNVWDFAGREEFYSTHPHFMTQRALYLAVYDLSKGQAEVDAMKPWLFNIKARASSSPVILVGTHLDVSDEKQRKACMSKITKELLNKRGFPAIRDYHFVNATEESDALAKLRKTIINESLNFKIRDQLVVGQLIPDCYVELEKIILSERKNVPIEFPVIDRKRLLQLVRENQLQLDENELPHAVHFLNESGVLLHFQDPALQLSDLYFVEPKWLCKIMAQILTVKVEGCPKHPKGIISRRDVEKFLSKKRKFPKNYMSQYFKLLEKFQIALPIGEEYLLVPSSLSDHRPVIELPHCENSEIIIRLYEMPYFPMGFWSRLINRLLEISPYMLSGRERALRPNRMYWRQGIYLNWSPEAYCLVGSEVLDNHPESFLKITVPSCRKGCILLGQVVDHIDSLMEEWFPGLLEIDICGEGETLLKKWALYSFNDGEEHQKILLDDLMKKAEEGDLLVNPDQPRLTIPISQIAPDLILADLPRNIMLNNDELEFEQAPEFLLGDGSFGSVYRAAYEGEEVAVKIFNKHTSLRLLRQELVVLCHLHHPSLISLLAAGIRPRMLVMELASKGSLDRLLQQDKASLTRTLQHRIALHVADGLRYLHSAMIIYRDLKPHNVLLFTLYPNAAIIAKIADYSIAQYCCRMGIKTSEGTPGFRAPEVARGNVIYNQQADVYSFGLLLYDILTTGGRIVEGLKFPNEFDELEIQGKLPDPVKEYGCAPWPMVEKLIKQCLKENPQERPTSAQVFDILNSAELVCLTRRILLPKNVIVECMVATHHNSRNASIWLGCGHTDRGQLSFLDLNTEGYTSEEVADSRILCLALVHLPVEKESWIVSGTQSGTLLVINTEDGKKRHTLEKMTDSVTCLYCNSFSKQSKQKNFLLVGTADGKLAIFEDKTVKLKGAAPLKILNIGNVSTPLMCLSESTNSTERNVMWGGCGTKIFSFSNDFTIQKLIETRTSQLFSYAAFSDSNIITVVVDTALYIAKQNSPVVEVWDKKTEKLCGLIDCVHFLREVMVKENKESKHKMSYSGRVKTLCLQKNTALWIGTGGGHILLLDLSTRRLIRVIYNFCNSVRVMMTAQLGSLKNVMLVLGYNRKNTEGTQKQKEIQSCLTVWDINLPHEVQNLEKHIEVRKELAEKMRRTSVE
How it was run: as §1

T1 sequence (Q5S007 970-2527): as the sequence (Q5S007 970-2527 G2019S) above, with S1050G counted along it

IC50 (LRRK2 WT): 9.6 nM
IC50 (LRRK2 G2019S): 2.5 nM
SMILES: [2H]C([2H])([2H])c1c2c(nn1C1CCOCC1)OCCCn1nc(Cl)c3cnc(nc31)N2 [Example 13, 8-Chloro-3-(methyl-d3)-2-(tetrahydro-2H-pyran-4-yl)-2,4,12,13-tetrahydro-11H-5,7-(azenometheno)dipyrazolo[3,4-b:5′,1′-g][1]oxa[4,6,8]triazacycloundecine]
